Measured values: patent US10174013B2, “Benzimidazole derivatives as kinase inhibitors” (SELVITA S.A., priority 2012, dated 2019)
Where two headings read alike, the source gives them in different places.

What was measured:
Pim-2 = Pim-2 (Homo sapiens (Human), UniProt Q9P1W9); assay: ADP-Glo Kinase Assay, Pim-2; format: biochemical; conditions: 1 μM compound; for inhibition at 1 µM: read-out: Pim-2 % INH (1 μM)
Summary of the method: (§1)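 ADP-Glo luminescent ADP detection of human kinase activity in 5 mM MOPS pH 7.5, 5 mM MgCl2, 0.4 mM EDTA, 1.5 mM DTT. ATP at each kinase's apparent Km; compounds diluted to 1000 nM in assay buffer. Percent inhibition from normalised luminescence.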

Pim-3 = Pim-3 (Homo sapiens (Human), UniProt Q86V86); assay: ADP-Glo Kinase Assay, Pim-3; format: biochemical; conditions: 1 μM compound; for inhibition at 1 µM: read-out: Pim-3 % INH (1 μM)
Summary of the method: as §1

Jeko-1 cells = assay: Growth inhibition, MTS assay, Jeko-1; format: cell-based, Human; conditions: 72 hours, MTS cell viability, read-out: Jeko-1 ED50
Source text: The following cell lines, were obtained and used in tests as outlined below: • Human myelomonocytic, biphenotypic leukemia MV4-11 cells (harboring a Flt3-ITD mutation); • Human Acute Myeloid Leukemia MOLM16 cells; • Human Acute Myeloid Leukemia MOLM13 cells (harboring a Flt3-ITD mutation); • Human Myeloid Leukemia KG-1 cells; • Human erythroleukemia HEL92 cells; • Human mantle cell lymphoma Jeko-1 cells; • Human hepatocellular carcinoma HepG2 cells; and • Human colon adenocarcinoma SW-480 cells.
The assays were carried out according to the following protocol, which is described as an example for the MV4-11 cells:
Ten thousand MV4-11 cells were inoculated into each well of a 96-well microplate (manufactured by Corning Corp.) using Iscove's MDM medium (culture medium) containing 10% fetal calf serum (FCS). The same day, a dimethyl sulfoxide (DMSO) solution of each test compound prepared in a concentration of 10 mmol/L was further diluted with DMSO to the desired concentrations (0.1, 0.5, 1, 2.5, 5 and 10 micromol/L), and the diluted solution was added to each well. The individual wells were further cultured in 5% carbon dioxide at 37° C. for 72 hours. […] Briefly, 10 μl MTS (3-(4,5-Dimethyl-2-thiazolyl)-5-(carboxymethoxyphenyl)-2-(4-sulfophenyl)-2H-tetrazolium was added to each well, and culturing was performed in 5% carbon dioxide at 37° C. for 2 hours. After this incubation and using a microplate spectrophotometer (Synergy 2 multi-mode microplate reader (BioTek)), the absorbance of each well was measured at 490 nm. The value for cells not incubated with a test compound was designated as 100%. By comparing these values with the absorbance difference obtained at the well in which each test compound was added, the cell viability (% viability) after treatment with the test compound was calculated.

DYRK1 = DYRK1 (Homo sapiens (Human), UniProt Q13627); assay: ADP-Glo Kinase Assay, DYRK1; format: biochemical; conditions: 1 μM compound; for inhibition at 1 µM: read-out: DYRK1A % INH (1 μM)
Summary of the method: as §1

HEL92 cells = assay: Growth inhibition, MTS assay, HEL92; format: cell-based, Human; conditions: MTS cell viability, read-out: HEL92 ED50
Pim-1 = Pim-1 (Homo sapiens (Human), UniProt P11309); assay: ADP-Glo Kinase Assay, Pim-1; format: biochemical; conditions: 1 μM compound; for inhibition at 1 µM: read-out: Pim-1 % INH (1 μM)
Summary of the method: as §1

hERG potassium channel = hERG potassium channel (Homo sapiens (Human), UniProt Q12809); assay: hERG automated patch clamp assay (QPatch HT)
Experimental: The hERG (human ether-A-go-go-related gene) channel corresponds to an important anti-target for potential new drugs since its inhibition may lead to sudden death. In order to establish whether the compounds of the present invention act on hERG, the following experiment was carried out.
The in vitro effects of the compounds indicated in Table 5 on the hERG potassium channel current (a surrogate for Iκr, the rapidly activating, delayed rectifier cardiac potassium current) expressed in mammalian cells were evaluated at room temperature using the QPatch HT® (Sophion Bioscience A/S, Denmark), an automatic parallel patch clamp system. Each compound indicated in Table 5 was evaluated at 0.1, 1, 3, 10 and 30 μM with each concentration tested in a minimum of two cells (n≥2). The duration of exposure to each compound concentration was 3 minutes.

HepG2 cells = assay: Growth inhibition, MTS assay, HepG2; format: cell-based, Human; conditions: MTS cell viability, read-out: HepG2 ED50
SW-480 cells = assay: Growth inhibition, MTS assay, SW-480; format: cell-based, Human; conditions: 72 hours, MTS cell viability, read-out: SW-480 ED50
CDK2/E = CDK2/E (Homo sapiens (Human), UniProt P24941); assay: ADP-Glo Kinase Assay, CDK2/E; format: biochemical; conditions: 1 μM compound; for inhibition at 1 µM: read-out: CDK2/E % INH (1 μM)
Summary of the method: as §1

FLT3wt = FLT3wt (Homo sapiens (Human), UniProt P36888); assay: ADP-Glo Kinase Assay, Flt3 wt; format: biochemical; conditions: 1 μM compound; for inhibition at 1 µM: read-out: Flt3wt % INH (1 μM)
Summary of the method: as §1

MV4-11 cells = assay: Growth inhibition, MTS assay, MV4-11; format: cell-based, Human; conditions: MTS cell viability, read-out: MV4-11 ED50
MV4-11 xenograft = MV4-11 xenograft in immunocompromised mice; format: in vivo; conditions: MV4-11 xenograft, oral
Source text: Several compounds of the present invention have been studied in a xenograft in mice, an in vivo tumor transplantation model used to investigate the factors involved in malignant transformation, invasion and metastasis, as well as to examine response to therapy. For the purpose of acceptance of donor leukemic cells (MV4-11 or MOLM16 cells), immunocompromised mice were used, namely particularly severely compromised immunodeficient mice (NOD/scid, SCID/beige). When tumors developed size of approx. 50-200 mm^3, the compounds as indicated below in Tables 3 and 3a were administered orally every day for 2-3 weeks, in once a day (QD) or twice a day (BID) schedule. During the course of the experiment, the mice were monitored and the following two parameters were measured: the tumor growth inhibition (TGI) factor as a measure of therapeutic efficacy and the body weight change (ΔBW) factor as a measure of possible compound toxicity. The results are depicted in Tables 3 and 3a.
Next, compound 26A was evaluated in a xenograft study of acute myeloid leukemia (MV-4-11), alone or in a combinational treatment with Cytarabine in vivo (Table 3b; FIG. 6). Compound 26A was tested in two doses (50 and 25 mg/kg) and administered twice a day (BID); Cytarabine was administered at dose of 50 mg/kg three times in a week (TIW). During 15 days of compound administration dose-dependent anti-cancer activity of compound 26A (administered alone) was shown. Tumor growth inhibition reached −82% and −77%, respectively.

Chain of hERG potassium channel (Q12809 whole entry): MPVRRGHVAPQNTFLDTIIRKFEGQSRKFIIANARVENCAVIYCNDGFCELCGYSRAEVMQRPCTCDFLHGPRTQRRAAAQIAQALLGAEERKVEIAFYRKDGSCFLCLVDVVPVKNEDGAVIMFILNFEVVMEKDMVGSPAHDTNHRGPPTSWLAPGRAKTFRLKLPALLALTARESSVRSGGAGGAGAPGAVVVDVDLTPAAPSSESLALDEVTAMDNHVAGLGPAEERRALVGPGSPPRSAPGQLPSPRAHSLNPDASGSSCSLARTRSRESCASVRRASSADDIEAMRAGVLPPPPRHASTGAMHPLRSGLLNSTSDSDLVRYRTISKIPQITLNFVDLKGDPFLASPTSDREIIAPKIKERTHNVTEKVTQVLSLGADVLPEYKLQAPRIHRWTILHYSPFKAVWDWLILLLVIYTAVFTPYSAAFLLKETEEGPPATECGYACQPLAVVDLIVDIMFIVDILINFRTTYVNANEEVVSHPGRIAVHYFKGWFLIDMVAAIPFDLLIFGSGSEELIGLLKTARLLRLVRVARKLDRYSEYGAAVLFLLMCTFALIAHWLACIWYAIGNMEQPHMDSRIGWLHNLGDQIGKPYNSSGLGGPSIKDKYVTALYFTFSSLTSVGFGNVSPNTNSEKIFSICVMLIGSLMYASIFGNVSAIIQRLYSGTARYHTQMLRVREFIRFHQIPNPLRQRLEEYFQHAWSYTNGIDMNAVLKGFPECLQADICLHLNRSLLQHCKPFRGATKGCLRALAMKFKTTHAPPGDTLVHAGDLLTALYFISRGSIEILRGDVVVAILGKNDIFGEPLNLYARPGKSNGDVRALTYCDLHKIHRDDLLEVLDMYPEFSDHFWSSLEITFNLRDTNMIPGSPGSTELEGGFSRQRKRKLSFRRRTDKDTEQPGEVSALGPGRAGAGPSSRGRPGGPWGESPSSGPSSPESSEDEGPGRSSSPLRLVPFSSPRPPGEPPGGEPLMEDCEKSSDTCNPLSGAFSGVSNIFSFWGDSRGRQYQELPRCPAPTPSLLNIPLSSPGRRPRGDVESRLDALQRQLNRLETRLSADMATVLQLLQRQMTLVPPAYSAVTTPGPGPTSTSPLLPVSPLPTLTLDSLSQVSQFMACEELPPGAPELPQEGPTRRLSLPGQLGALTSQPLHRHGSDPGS
Chain of Pim-2 (Q9P1W9 whole entry): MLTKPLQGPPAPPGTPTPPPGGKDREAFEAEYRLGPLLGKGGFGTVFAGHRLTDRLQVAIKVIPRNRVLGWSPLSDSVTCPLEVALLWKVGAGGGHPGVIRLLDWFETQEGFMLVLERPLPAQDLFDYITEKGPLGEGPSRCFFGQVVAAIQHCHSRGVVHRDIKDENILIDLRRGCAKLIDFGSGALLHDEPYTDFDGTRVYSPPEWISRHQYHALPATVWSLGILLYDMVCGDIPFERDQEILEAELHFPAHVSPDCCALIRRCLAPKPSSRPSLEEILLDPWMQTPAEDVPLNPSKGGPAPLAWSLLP
Chain of Pim-1 (P11309 whole entry): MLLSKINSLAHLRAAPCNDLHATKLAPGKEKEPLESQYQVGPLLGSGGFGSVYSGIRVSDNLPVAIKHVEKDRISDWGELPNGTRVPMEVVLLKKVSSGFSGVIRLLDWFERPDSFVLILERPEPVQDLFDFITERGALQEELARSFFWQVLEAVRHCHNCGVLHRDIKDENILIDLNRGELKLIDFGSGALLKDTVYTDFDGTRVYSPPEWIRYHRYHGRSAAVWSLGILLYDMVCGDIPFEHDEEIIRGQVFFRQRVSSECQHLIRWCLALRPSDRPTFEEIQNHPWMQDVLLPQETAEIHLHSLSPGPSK
Chain of FLT3wt (P36888 27-993): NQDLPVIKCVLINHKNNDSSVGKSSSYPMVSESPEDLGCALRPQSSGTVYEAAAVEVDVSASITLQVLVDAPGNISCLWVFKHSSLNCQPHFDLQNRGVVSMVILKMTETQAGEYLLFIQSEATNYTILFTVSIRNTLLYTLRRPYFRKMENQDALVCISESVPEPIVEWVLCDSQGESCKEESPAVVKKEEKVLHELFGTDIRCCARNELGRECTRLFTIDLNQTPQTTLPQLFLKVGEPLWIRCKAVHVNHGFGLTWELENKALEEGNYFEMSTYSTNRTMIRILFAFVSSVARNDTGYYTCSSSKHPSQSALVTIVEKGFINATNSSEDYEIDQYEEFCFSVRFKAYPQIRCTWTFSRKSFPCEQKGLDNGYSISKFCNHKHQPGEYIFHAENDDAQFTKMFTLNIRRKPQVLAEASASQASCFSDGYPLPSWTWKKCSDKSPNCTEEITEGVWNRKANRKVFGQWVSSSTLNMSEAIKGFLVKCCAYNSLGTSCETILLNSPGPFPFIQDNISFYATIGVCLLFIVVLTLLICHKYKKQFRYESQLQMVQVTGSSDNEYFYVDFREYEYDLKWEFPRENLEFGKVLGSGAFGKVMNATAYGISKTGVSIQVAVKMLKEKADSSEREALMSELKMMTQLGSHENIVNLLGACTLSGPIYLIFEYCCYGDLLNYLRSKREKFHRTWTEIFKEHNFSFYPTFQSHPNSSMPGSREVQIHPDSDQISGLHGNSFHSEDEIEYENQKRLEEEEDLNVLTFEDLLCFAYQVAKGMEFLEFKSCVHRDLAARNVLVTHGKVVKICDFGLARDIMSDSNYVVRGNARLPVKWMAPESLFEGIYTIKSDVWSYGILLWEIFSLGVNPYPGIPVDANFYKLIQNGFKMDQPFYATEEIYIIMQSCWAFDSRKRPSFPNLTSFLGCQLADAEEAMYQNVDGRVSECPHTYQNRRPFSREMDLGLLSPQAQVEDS

SMILES | inhibition at 1 µM (Pim-2) [%] | inhibition at 1 µM (Pim-3) [%] | IC50 (Jeko-1 cells; Homo sapiens, JeKo-1) [nM] | inhibition at 1 µM (DYRK1) [%] | inhibition at 1 µM (Pim-1) [%] | IC50 (hERG potassium channel) [nM] | inhibition at 1 µM (CDK2/E) [%] | inhibition at 1 µM (FLT3wt) [%] | IC50 (MV4-11 cells; Homo sapiens, MV4-11, 72 h) [nM] | Pim-2 % INH (1 μM) (Pim-2) [%] | Pim-3 % INH (1 μM) (Pim-3) [%] | IC50 (Jeko-1 cells) [nM] | DYRK1A % INH (1 μM) (DYRK1) [%] | IC50 (HEL92 cells; 72 hours) [nM] | Pim-1 % INH (1 μM) (Pim-1) [%] | IC50 (HepG2 cells; 72 hours) [nM] | IC50 (SW-480 cells) [nM] | CDK2/E % INH (1 μM) (CDK2/E) [%] | Flt3wt % INH (1 μM) (FLT3wt) [%] | IC50 (MV4-11 cells; 72 hours) [nM] | other results
CCn1c(N2CCNCC2C)nc2c([N+](=O)[O-])c(Br)c(Br)cc21 (centres unmarked) [Example 1AD] | 52 | > 95 | 400 | 72 | > 95 | 1420 | 26 | 18 | 500 | – | – | – | – | – | – | – | – | – | – | – | IC50 (HEL92 cells; Homo sapiens, 72 h): 500 nM; IC50 (HepG2 cells; Homo sapiens, HepG2, 72 h): 600 nM; IC50 (SW-480 cells; Homo sapiens, SW480): 700 nM
CCn1c(NCCN)nc2c([N+](=O)[O-])c(Br)c(Br)cc21 [Example 1AL] | – | – | – | – | – | 2420 | – | – | – | 42 | >95 | 2300 | 49 | 5300 | >95 | 1400 | 5300 | <5 | <5 | 2200 | –
CC(C)n1c(N2CCC[C@H](N)C2)nc2c([N+](=O)[O-])c(Br)c(Br)cc21 [Example 1AP] | – | – | – | – | – | 1820 | – | – | – | 80 | 93 | 1300 | 70 | 2400 | >95 | 900 | 2400 | 13 | 56 | 300 | TGI (tumor growth inhibition) (MV4-11 xenograft; 150 mg/Kg QD): 99%; ΔBW (body weight change) (MV4-11 xenograft; 150 mg/Kg QD): 11.7%; TGI (tumor growth inhibition) (MV4-11 xenograft; doses as in Table 3): exceeding 97%
CCCn1c(NCC(O)CN)nc2c([N+](=O)[O-])c(Br)c(Br)cc21 (centres unmarked) [Example 1X] | 36 | > 95 | 4300 | 16 | > 95 | 20400 | 17 | < 5 | 1200 | – | – | – | – | – | – | – | – | – | – | – | –
CC(C)Cn1c(NCC(O)CN)nc2c([N+](=O)[O-])c(Br)c(Br)cc21 (centres unmarked) [Example 1Y] | 25 | 86 | 3400 | – | > 95 | 16900 | 6 | < 5 | 1400 | – | – | – | – | – | – | – | – | – | – | – | –
